In this experiment the test system is HIV. The experiment can be described thus: MT4 Assay (anti-HIV activity). The note with it: Human immunodeficiency virus 1, 96 h, read-out: HIV MT4 Assay IC50, HTLV-1 transformed cell line MT-4, cell titer glo, 10 point dose response curve. It counts as cell-based. A digest of the protocol:
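MT-4 cells (HTLV-1 transformed) were used for antiviral activity and cytotoxicity, run in parallel, with luminescence read by CellTiter-Glo 96 hours later. Percent inhibition was expressed against the no-compound control. IC50s came from 10-point curves of 3-4-fold serial dilutions spanning >1000-fold.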
On the technique in general: In ATP-based viability assays light output follows the ATP content of the culture.

For `Cc1c(-c2c(C(OC(C)(C)C)C(=O)O)n(C)c(=O)c3cc(OCc4ccc(F)cn4)ccc23)ccc2c1CCCO2` (centres unmarked) [Example 100, 2-(tert-butoxy)-2-{7-[(5-fluoropyridin-2-yl)methoxy]-2-methyl-4-(5-methyl-3,4-dihydro-2H-1-benzopyran-6-yl)-1-oxo-1,2-dihydroisoquinolin-3-yl}acetic acid], the IC50 (in general, the concentration at which inhibition is half-maximal) came to 270 nM.
To `Cc1noc(C)c1-c1ccc2c(-c3cc(F)c4c(c3C)CCCO4)c([C@H](OC(C)(C)C)C(=O)O)n(C)c(=O)c2c1` (atropisomer, axis not shown; (M)) [Example 207, (2S)(M)-[(1,1-dimethylethyl)oxy][7-(3,5-dimethyl-4-isoxazolyl)-4-(8-fluoro-5-methyl-3,4-dihydro-2H-chromen-6-yl)-2-methyl-1-oxo-1,2-dihydro-3-isoquinolinyl]ethanoic acid] belongs 80 nM; to `Cc1c(-c2c(C(OC(C)(C)C)C(=O)O)n(C)c(=O)c3cc(OCc4ccccc4F)ccc23)ccc2c1CCCO2` (centres unmarked) [Example 103, 2-(tert-butoxy)-2-{7-[(2-fluorophenyl)methoxy]-2-methyl-4-(5-methyl-3,4-dihydro-2H-1-benzopyran-6-yl)-1-oxo-1,2-dihydroisoquinolin-3-yl}acetic acid], 50 nM; to `Cc1c(-c2c([C@H](OC(C)(C)C)C(=O)O)n(C)c(=O)c3cc(-c4ccncc4)ccc23)cc(F)c2c1CCCO2` (atropisomer, axis not shown; (M)) [Example 205, (2S)(M)-[(1,1-dimethylethyl)oxy][4-(8-fluoro-5-methyl-3,4-dihydro-2H-chromen-6-yl)-2-methyl-1-oxo-7-(4-pyridinyl)-1,2-dihydro-3-isoquinolinyl]ethanoic acid], 160 nM.
The result for `Cc1ccccc1-c1c(C(OC(C)(C)C)C(=O)O)n(C)c(=O)c2ccccc12` (centres unmarked) [Example 71, 2-(tert-butoxy)-2-[2-methyl-4-(2-methylphenyl)-1-oxo-1,2-dihydroisoquinolin-3-yl]acetic acid] reads 1450 nM; that for `Cc1ccc(-c2c(C(OC(C)(C)C)C(=O)O)n(C)c(=O)c3cc(F)ccc23)cc1C` (centres unmarked) [Example 87, 2-(tert-butoxy)-2-[4-(3,4-dimethylphenyl)-7-fluoro-2-methyl-1-oxo-1,2-dihydroisoquinolin-3-yl]acetic acid], 740 nM; that for `Cc1nc(COc2ccc3c(-c4cc(F)c5c(c4C)CCCO5)c([C@H](OC(C)(C)C)C(=O)O)n(C)c(=O)c3c2)c(C)o1` [Example 105, (2S)-2-(tert-butoxy)-2-{7-[(dimethyl-1,3-oxazol-4-yl)methoxy]-4-(8-fluoro-5-methyl-3,4-dihydro-2H-1-benzopyran-6-yl)-2-methyl-1-oxo-1,2-dihydroisoquinolin-3-yl}acetic acid], 100 nM.
The result for `Cc1c(-c2c([C@H](OC(C)(C)C)C(=O)O)n(C)c(=O)c3cc(OCc4ccc(Cl)s4)ccc23)cc(F)c2c1CCCO2` [Example 110, (2S)-2-(tert-butoxy)-2-{7-[(5-chlorothiophen-2-yl)methoxy]-4-(8-fluoro-5-methyl-3,4-dihydro-2H-1-benzopyran-6-yl)-2-methyl-1-oxo-1,2-dihydroisoquinolin-3-yl}acetic acid] reads 40 nM; that for `COc1ccc(-c2ccc3c(-c4cc(F)c5c(c4C)CCCO5)c([C@H](OC(C)(C)C)C(=O)O)n(C)c(=O)c3c2)cn1` (atropisomer, axis not shown; (M)) [Example 198, (2S)(M)-[(1,1-dimethylethyl)oxy]{4-(8-fluoro-5-methyl-3,4-dihydro-2H-chromen-6-yl)-2-methyl-7-[6-(methyloxy)-3-pyridinyl]-1-oxo-1,2-dihydro-3-isoquinolinyl}ethanoic acid], 40 nM; that for `Cc1ccc(-c2c(C(OC(C)(C)C)C(=O)O)n(C)c(=O)c3cc(CNCc4ccccn4)ccc23)cc1C` (centres unmarked) [Example 183, 2-(tert-butoxy)-2-(4-(3,4-dimethylphenyl)-2-methyl-1-oxo-7-(((pyridin-2-ylmethyl)amino)methyl)-1,2-dihydroisoquinolin-3-yl)acetic acid], 3610 nM.
In the case of `Cc1c(-c2c(C(OC(C)(C)C)C(=O)O)n(C)c(=O)c3cc(OCc4cccc(F)c4)ccc23)ccc2c1CCCO2` (centres unmarked) [Example 104, 2-(tert-butoxy)-2-{7-[(3-fluorophenyl)methoxy]-2-methyl-4-(5-methyl-3,4-dihydro-2H-1-benzopyran-6-yl)-1-oxo-1,2-dihydroisoquinolin-3-yl}acetic acid], the IC50 was found to be 60 nM.
To `COc1ccc2c(-c3ccc4c(c3C)CCCO4)c(C(OC(C)(C)C)C(=O)O)n(C)c(=O)c2c1F` (centres unmarked) [Example 126, 2-(tert-butoxy)-2-[8-fluoro-7-methoxy-2-methyl-4-(5-methyl-3,4-dihydro-2H-1-benzopyran-6-yl)-1-oxo-1,2-dihydroisoquinolin-3-yl]acetic acid] belongs 360 nM.
To `Cc1c(-c2c(C(OC(C)(C)C)C(=O)O)n(C)c(=O)c3cc(OCc4ccc(F)c(F)c4)ccc23)ccc2c1CCCO2` (centres unmarked) [Example 138, 2-(tert-butoxy)-2-{7-[(3,4-difluorophenyl)methoxy]-2-methyl-4-(5-methyl-3,4-dihydro-2H-1-benzopyran-6-yl)-1-oxo-1,2-dihydroisoquinolin-3-yl}acetic acid] belongs 70 nM; to `Cn1c(C(OC(C)(C)C)C(=O)O)c(-c2ccncc2)c2ccccc2c1=O` (centres unmarked) [Example 48, 2-(tert-butoxy)-2-[2-methyl-1-oxo-4-(pyridin-4-yl)-1,2-dihydroisoquinolin-3-yl]acetic acid], 50000 nM; to `COc1ccc2c(-c3ccc4c(c3)CCCO4)c(C(OC(C)(C)C)C(=O)O)n(C)c(=O)c2c1` (centres unmarked) [Example 72, 2-(tert-butoxy)-2-[4-(3,4-dihydro-2H-1-benzopyran-6-yl)-7-methoxy-2-methyl-1-oxo-1,2-dihydroisoquinolin-3-yl]acetic acid], 400 nM.
The result for `Cc1ccc(-c2c(C(OC(C)(C)C)C(=O)O)n(C)c(=O)c3ccc(F)cc23)cc1C` (centres unmarked) [Example 56, 2-(tert-butoxy)-2-[4-(3,4-dimethylphenyl)-6-fluoro-2-methyl-1-oxo-1,2-dihydroisoquinolin-3-yl]acetic acid] reads 1680 nM.
For `Cc1ccc(-c2c(C(OC(C)(C)C)C(=O)O)n(C)c(=O)c3ccccc23)cc1` (centres unmarked) [Example 7, 2-(tert-butoxy)-2-[2-methyl-4-(4-methylphenyl)-1-oxo-1,2-dihydroisoquinolin-3-yl]acetic acid], the IC50 came out at 700 nM.
The result for `Cn1c(C(OC(C)(C)C)C(=O)O)c(-c2ccc(C(F)(F)F)cc2)c2ccccc2c1=O` (centres unmarked) [Example 17, 2-(tert-butoxy)-2-{2-methyl-1-oxo-4-[4-(trifluoromethyl)phenyl]-1,2-dihydroisoquinolin-3-yl}acetic acid] reads 18400 nM; that for `Cc1c(-c2c(C(OC(C)(C)C)C(=O)O)n(C)c(=O)c3cc(OCc4cccc(F)c4F)ccc23)ccc2c1CCCO2` (centres unmarked) [Example 96, 2-(tert-butoxy)-2-{7-[(2,3-difluorophenyl)methoxy]-2-methyl-4-(5-methyl-3,4-dihydro-2H-1-benzopyran-6-yl)-1-oxo-1,2-dihydroisoquinolin-3-yl}acetic acid], 70 nM.
The result for `Cc1c(-c2c(C(OC(C)(C)C)C(=O)O)n(C)c(=O)c3cc(OCc4c(F)cccc4F)ccc23)ccc2c1CCCO2` (centres unmarked) [Example 98, 2-(tert-butoxy)-2-{7-[(2,6-difluorophenyl)methoxy]-2-methyl-4-(5-methyl-3,4-dihydro-2H-1-benzopyran-6-yl)-1-oxo-1,2-dihydroisoquinolin-3-yl}acetic acid] reads 90 nM; that for `Cc1c(-c2c([C@H](OC(C)(C)C)C(=O)O)n(C)c(=O)c3cc(OCc4cccs4)ccc23)ccc2c1CCCO2` [Example 111, (2S)-2-(tert-butoxy)-2-[2-methyl-4-(5-methyl-3,4-dihydro-2H-1-benzopyran-6-yl)-1-oxo-7-(thiophen-2-ylmethoxy)-1,2-dihydroisoquinolin-3-yl]acetic acid], 30 nM.
To `Cc1c(-c2c([C@H](OC(C)(C)C)C(=O)O)n(C)c(=O)c3cc(N4CCCCC4)ccc23)cc(F)c2c1CCCO2` (atropisomer, axis not shown; (M)) [Example 166, (2S)(M)-[(1,1-dimethylethyl)oxy][4-(8-fluoro-5-methyl-3,4-dihydro-2H-chromen-6-yl)-2-methyl-1-oxo-7-(1-piperidinyl)-1,2-dihydro-3-isoquinolinyl]ethanoic acid] belongs 20 nM; to `Cc1ccc(-c2c(C(CC(C)C)C(=O)O)n(C)c(=O)c3ccccc23)c(C)c1` (centres unmarked) [Example 217, 2-[4-(2,4-dimethylphenyl)-2-methyl-1-oxo-1,2-dihydro-3-isoquinolinyl]-4-methylpentanoic acid], 13000 nM; to `Cc1c(-c2c([C@H](OC(C)(C)C)C(=O)O)n(C)c(=O)c3cc(N4CCOCC4)ccc23)cc(F)c2c1CCCO2` (atropisomer, axis not shown; (M)) [Example 168, (S)(M)-2-(tert-butoxy)-2-(4-(8-fluoro-5-methylchroman-6-yl)-2-methyl-7-morpholino-1-oxo-1,2-dihydroisoquinolin-3-yl)acetic acid], 260 nM.
Regarding `Cn1c(C(OC(C)(C)C)C(=O)O)c(-c2ccc3c(c2)CCCO3)c2cc(F)ccc2c1=O` (centres unmarked) [Example 25, 2-(tert-butoxy)-2-[4-(3,4-dihydro-2H-1-benzopyran-6-yl)-6-fluoro-2-methyl-1-oxo-1,2-dihydroisoquinolin-3-yl]acetic acid], the IC50 stood at 670 nM.
To `COc1ccc2c(-c3cc(F)c4c(c3C)CCCO4)c(C(OC(C)(C)C)C(=O)O)n(C)c(=O)c2c1` (centres unmarked) [Example 125, 2-(tert-butoxy)-2-[4-(8-fluoro-5-methyl-3,4-dihydro-2H-1-benzopyran-6-yl)-7-methoxy-2-methyl-1-oxo-1,2-dihydroisoquinolin-3-yl]acetic acid] belongs 320 nM.
